From patent publication EP2653477B1, “SCORPION ACTIVE PEPTIDES AND PREPARATION METHODS AND APPLICATIONS THEREOF” (Wuhan More Biotechnology Co., Ltd., priority 2010, dated 2012)
Bridge positions count the residues as written; N and C are the ends. Peptide text beside a SMILES is read from it.

Experiments:
[1] = tested on: Kunming mice; assay: toxicity study in mice, single intraperitoneal injection, 7 days observation; format: in vivo; details: 10 mg/kg intraperitoneally once (100 times the dose for animal model), observed 7 days
Procedure: 18∼20 g Kunming mice were selected, and divided into 4 groups, 8 male mice and 8 female mice for each group. The lyophilized powders of scorpion active polypeptides ADMR-011, ADMR-016, ADMR-019, ADMR-023 and ADMR-028 were dissolved with normal saline respectively, and the 3 groups of mice were injected intraperitoneally once respectively with polypeptide solution at a dose of 10 mg/kg (100 times of the dose for animal model), and the fourth group were injected with equivalent amount of normal saline as control.
After the administration, the respiration, motor and heartbeat in animals of all the groups were all normal, without significant abnormal reaction. 7 days after the administration, all the animals were conducted gross anatomy to observe the volume, color and texture of the main organs (heart, liver, spleen, lung, and kidney), and there was no macroscopic lesion. There were no significant difference between the 3 administration groups and the normal saline group.

[2] = molecular target: T1, potassium channel Kv1.3 (Homo sapiens, UniProt P22001); assay: whole-cell patch clamp, inhibition of Kv1.3 current in transfected COS-7 cells; format: cell-based; details: potassium channel Kv1.3 in COS-7 cells, read-out: polypeptide concentrations that inhibit the current by half (IC50 value)
T1 construct: expressed in transfected cells; host or cells: COS-7 cells, selected with 0.8 mg/mL geneticin
T1 sequence (P22001 whole entry): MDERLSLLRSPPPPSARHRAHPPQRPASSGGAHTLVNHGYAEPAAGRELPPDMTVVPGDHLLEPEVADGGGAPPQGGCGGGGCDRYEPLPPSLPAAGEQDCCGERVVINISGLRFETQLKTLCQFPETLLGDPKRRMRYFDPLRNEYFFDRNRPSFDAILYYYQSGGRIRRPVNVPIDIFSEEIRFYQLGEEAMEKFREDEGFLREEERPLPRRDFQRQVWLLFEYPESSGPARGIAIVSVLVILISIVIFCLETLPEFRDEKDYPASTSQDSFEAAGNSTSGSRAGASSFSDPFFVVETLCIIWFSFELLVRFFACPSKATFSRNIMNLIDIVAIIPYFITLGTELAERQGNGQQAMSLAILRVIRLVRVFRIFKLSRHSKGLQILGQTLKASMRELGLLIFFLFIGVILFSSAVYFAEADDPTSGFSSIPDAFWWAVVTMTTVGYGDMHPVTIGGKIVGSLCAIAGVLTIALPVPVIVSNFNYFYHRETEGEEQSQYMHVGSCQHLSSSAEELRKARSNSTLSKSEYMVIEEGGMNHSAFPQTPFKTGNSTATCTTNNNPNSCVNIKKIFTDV
Procedure: COS-7 cells were cultured in a DMEM medium containing 10% fetal calf serum, at 37° C, 5% CO2. The recombinant plasmids of potassium channel Kv1.3 were transfected by using a Sofast™ transfection kit, and the transfected cells were selectively cultured in a medium containing 0.8 mg/mL geneticin. The pharmacological activities of scorpion active polypeptides ADMR-011, ADMR-016, ADMR-019, ADMR-023 and ADMR-028 were tested and analyzed by using an instrument of whole-cell patch clamp (EPC-10 dual-channel patch clamp amplifier HEKA, Elektronik, Lambrecht, Germany). The setting of the experimental parameters, the collecting of data, and the applying of stimulus were all controlled by Pulse software (Elektronik, Lambrecht, Germany). The filter of the instrument was set to be 10 kHz (Bessel), and the electrode impedance was 2∼5 MΩ. After the formation of giga-seal (1∼5 GΩ) between the electrode and cell membrane, an automatic c-fast was performed, and the membrane was broken by slightly applying negative pressure, then an automatic c-slow was performed. At a holding potential of -70 mV, depolarizing pulses, incrementing in 10 mV steps, with a step width of 80 ms , were given to stimulate from -60 mV to +50 mV, and the condition of current was observed. The polypeptides ADMR-011, ADMR-016 and ADMR-019 were accurately perfused, which was achieved by MPS-2 (INBIO Inc, Wuhan, China) perfusing system. After dissolving the three scorpion active polypeptides, they were applied by spraying via DAD Drug Application System (ALA), and the tip of the tube for drug application was about 100 µm away from the cell being recorded.
It can be known from Figure 16 to Figure 20 that, the pharmacological activity of ADMR-011 on potassium channel Kvl.3 was 91 pM, the pharmacological activity of ADMR-016 on potassium channel Kvl.3 was 2.58 nM, the pharmacological activity of ADMR-019 on potassium channel Kv1.3 was 1.41 nM, and the pharmacological activity of ADMR-023 and ADMR-028 on potassium channel Kvl.3 were 0.49 nM and 0.65 nM, respectively. Therefore, they are polypeptides with potent activity that are currently found internationally.

[3] = tested on: Wistar rat EAE model; assay: EAE (multiple sclerosis) model in Wistar rats induced by GPSCH-CFA, clinical scoring; format: in vivo; details: 100 µg·kg^-1 subcutaneously once every day, x±s, n=10, score 0-5
From the text: Experimental animals: female inbred line Wistar rats (6∼8 week old, body weigh 150±10 g) and guinea pigs (300∼400 g, purchased from Wuhan University Laboratory Animal Center) were selected.
Formulating a mixed emulsion of whole spinal cord homogenate - Freund's complete adjuvant (GPSCH-CFA): a guinea pig was executed, and the spinal cord was rapidly removed, and prepared into 50% PBS homogenate by a ultrasonic disruptor (Sonics & Materials Inc, America), which was mixed with equal amount of Freund's complete adjuvant (BCG vaccine 10 mg/ml), and was pushed back and forth with syringes until forming a water-in-oil emulsion.
Wistar rat EAE model induced by EAE: GPSCH-CFA emulsion was injected intradermally into the foot pads of both the hind legs of Wistar rats, or simultaneously injected intradermally about 1×10^10 pertussis vaccine. The rats were weighed every day, and observed for their neurological symptoms. Experimental autoimmune encephalomyelitis appeared after the rats had been raised for 2 weeks.
The rats with experimental autoimmune encephalomyelitis (EAE) were divided into […] groups randomly: normal control group (negative control group), model control group (model rats + normal saline), administration group A (model rats + ADMR-011 polypeptide), administration group B (model rats + ADMR-016 polypeptide), administration group C (model rats + ADMR-019 polypeptide), administration group D (model rats + ADMR-023 polypeptide), and administration group E (model rats + ADMR-028 polypeptide), 10 rats for each group. For the administration groups, polypeptides ADMR-011, ADMR-016, ADMR-019, ADMR-023 and ADMR-028 were injected subcutaneously respectively at a dose of 100 µg·kg^-1, once every day in the morning. For the normal control group and the model control group, equivalent amount of normal saline was injected subcutaneously, and administered continuously. […] The highest clinical score for each animal was recorded, and the average value of them was taken to be the average clinical score.
The scoring criteria were: without any clinical symptom, 0 point; disappearance of tension in the tail, and observable mild awkward gait, 1 point; weakness in both the hind limbs, which can recover after passive body flipping, 2 points; paralysis in both the hind limbs, which can not recover after passive body flipping, 3 points; tetraplegia accompanied by incontinence of urine and feces, 4 points; moribund state or death, 5 points. Table 1. Scores for rats of various experimental groups in the EAE model (-x±s)

[4] = tested on: rheumatoid arthritis; assay: pristane-induced rheumatoid arthritis in SD rats, joint score and hind foot plantar swelling; format: in vivo; parameters: key to Score of joint: clinical score 1-4: 1 joint red/swollen=1 ... severe whole-limb arthritis=4; details: x±s, n=10; for Score of joint: arthritis rats, polypeptides 100 µg·kg^-1 (methotrexate 1.75 µg·kg^-1) subcutaneously once every day, score 1-4; for The swelling degree after the inflammation: volume difference of hind foot before and after the modeling
Procedure: […] Female (♀) specific pathogen free (SPF) inbred line SD rats (Wuhan University Laboratory Animal Center), body weight 150±10 g, were selected, and pristane was injected intradermally at the base of the tail of rats in experimental groups at a dose of 0.2 ml/rat, after they were acclimatized in a clean-grade environment for 1 week. Rheumatoid arthritis appeared after the rats were raised for only 2 weeks.
The rats having arthritis were randomized into: normal control group (negative control group), model negative control group (model rat + normal saline), model positive control group (model rat + methotrexate), administration group A (model rat + ADMR-011 polypeptide), administration group B (model rat + ADMR-016 polypeptide), administration group C (model rat + ADMR-019 polypeptide), administration group D (model rat + ADMR-023 polypeptide), and administration group E (model rat + ADMR-028 polypeptide), 10 rats for each group. The administration groups were injected subcutaneously at a dose of 100 µg·kg^-1, once every day in the morning, and administered continuously; the normal control group and the model negative control group were injected subcutaneously with equivalent amount of normal saline; and the model positive control group were injected subcutaneously with methotrexate (MTX) at a dose of 1.75 µg·kg^-1, once every day, and administered continuously.
The highest clinical score for each animal was recorded, and the average value of them was taken to be the average clinical score. The scoring criteria were: one joint of a rat was red and swollen, 1 point; two joints of a rat were red and swollen, 2 points; all the joints of a rat were red and swollen, 3 points; severe arthritis in the entire limb of a rat, 4 points. Table 2. Arthritis scores for rats of various experimental groups (-x±s)
From day 8 of the experiment, the hind foot plantar volume of the rat was measured and recorded every other day for 21 consecutive days, and the swelling degree (mL) was calculated according to the volume difference before and after the modeling. Table 3. The swelling degree of rats in various experimental groups (-x±s)

Compound	toxicity in mice [1]	IC50 [2] [nM]	Average clinical scores ([3]; 8 d)	Average clinical scores ([3]; 10 d)	Average clinical scores ([3]; 12 d)	Average clinical scores ([3]; 14 d)	Score of joint ([4]; 10 d)	Score of joint ([4]; 15 d)	Score of joint ([4]; 21 d)	The swelling degree after the inflammation ([4]; d8) [mL]	The swelling degree after the inflammation ([4]; d15) [mL]	The swelling degree after the inflammation ([4]; d22) [mL]	The swelling degree after the inflammation ([4]; d28) [mL]
CC[C@H](C)[C@H](NC(=O)CNC(=O)[C@@H](N)C(C)C)C(=O)N[C@@H](CC(N)=O)C(=O)N[C@H](C(=O)N[C@@H](CCC(N)=O)C(=O)N[C@H]1CSSC[C@@H]2NC(=O)[C@H](CCC(N)=O)NC(=O)CNC(=O)[C@H](Cc3ccccc3)NC(=O)[C@H](CCCNC(=N)N)NC(=O)[C@H](CCSC)NC(=O)CNC(=O)[C@H](C)NC(=O)[C@H](CC(=O)O)NC(=O)[C@H](CCCCN)NC(=O)[C@@H]3CSSC[C@@H](C(=O)N[C@H](C(=O)N4CCC[C@H]4C(=O)N[C@@H](CCCCN)C(=O)O)[C@@H](C)O)NC(=O)[C@H](CC(=O)O)NC(=O)[C@H](CSSC[C@H](NC(=O)[C@H](CCC(N)=O)NC(=O)CNC(=O)[C@H](CO)NC(=O)[C@H]([C@@H](C)O)NC(=O)[C@H](CC(N)=O)NC1=O)C(=O)N[C@@H](CC(C)C)C(=O)N[C@@H](CCCCN)C(=O)N1CCC[C@H]1C(=O)N3)NC(=O)[C@H](CCCCN)NC(=O)CNC(=O)[C@H](CC(N)=O)NC(=O)[C@H]([C@@H](C)CC)NC2=O)C(C)C [ADMR-016] (H-VGINVQCNTSGQCLKPCKDAGMRFGQCINGKCDCTPK-OH; disulfide 7-27, 13-32, 17-34 (inferred); N-terminus and C-terminus assumed)	no significant toxicity	2.58	0.50±0.23	0.87±0.34	1.31±0.42	1.21±0.49	1.84±0.71	2.24±0.53	1.96±0.62	0.037 ± 0.012	0.25 ± 0.07	0.37 ± 0.08	0.33 ± 0.12
CC[C@H](C)[C@H](NC(=O)CNC(=O)[C@@H](N)C(C)C)C(=O)N[C@@H](CC(N)=O)C(=O)N[C@H](C(=O)N[C@@H](CCC(N)=O)C(=O)N[C@H]1CSSC[C@@H]2NC(=O)[C@H](CCC(N)=O)NC(=O)CNC(=O)[C@H](Cc3ccccc3)NC(=O)[C@H](CCCNC(=N)N)NC(=O)[C@H](CCSC)NC(=O)CNC(=O)[C@H](C)NC(=O)[C@H](CC(=O)O)NC(=O)[C@H](CCCCN)NC(=O)[C@@H]3CSSC[C@@H](C(=O)N[C@H](C(=O)N4CCC[C@H]4C(=O)N[C@@H](CCCCN)C(=O)O)[C@@H](C)O)NC(=O)[C@H](CC(=O)O)NC(=O)[C@H](CSSC[C@H](NC(=O)[C@H](CCC(N)=O)NC(=O)[C@H](CCCNC(=N)N)NC(=O)[C@H](CO)NC(=O)CNC(=O)[C@H](CC(N)=O)NC1=O)C(=O)N[C@@H](CC(C)C)C(=O)N[C@@H](CCCCN)C(=O)N1CCC[C@H]1C(=O)N3)NC(=O)[C@H]([C@@H](C)O)NC(=O)CNC(=O)[C@H](CC(N)=O)NC(=O)[C@H]([C@@H](C)CC)NC2=O)C(C)C [ADMR-019] (H-VGINVQCNGSRQCLKPCKDAGMRFGQCINGTCDCTPK-OH; disulfide 7-27, 13-32, 17-34 (inferred); N-terminus and C-terminus assumed)	no significant toxicity	1.41	0.53±0.16	0.93±0.46	1.19±0.51	1.37±0.34	1.78±0.48	2.17±0.55	1.81±0.77	0.034 ± 0.011	0.27 ± 0.07	0.34 ± 0.11	0.37 ± 0.13
